Read-outs that look alike come from different tables or passages of the source.
Columns and labels:
[1] = biological target: T1, wild-type CD38 (cADPR hydrolase activity) (Homo sapiens, UniProt P28907, N100D/N164A/N209D/N219D); experiment: Enzymatic assay for cADPR hydrolysis (inhibition of CD38-catalyzed cADPR hydrolysis, fluorimetric cycling assay); format: biochemical; conditions: for Fold improvement of IC50 over N1-cIDPR (cADPR hydrolysis): relative to N1-cIDPR, IC50 276 µM
T1 construct: Crystal structure of human CD38 extracellular domain; made in house
T1 sequence (P28907 45-300 N100D/N164A/N209D/N219D limits assumed): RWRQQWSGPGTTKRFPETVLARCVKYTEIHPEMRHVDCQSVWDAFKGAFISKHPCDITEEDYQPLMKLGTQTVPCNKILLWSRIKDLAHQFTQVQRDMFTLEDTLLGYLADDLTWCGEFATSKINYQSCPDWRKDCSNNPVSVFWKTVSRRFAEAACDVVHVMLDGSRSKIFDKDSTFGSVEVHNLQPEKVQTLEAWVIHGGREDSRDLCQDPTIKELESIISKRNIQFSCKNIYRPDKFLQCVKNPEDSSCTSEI
Protocol: The reaction was stopped by the addition of 150 mM HCl. The precipitated protein was filtered, and the pH was neutralized with Tris base. After diluting the mixture 20-fold, the concentration of the unhydrolyzed cADPR present in the diluted reaction mixture was assayed by the fluorimetric cycling assay as previously described.

[2] = biological target: T2, CD38 NAD+ glycohydrolase activity (Homo sapiens, UniProt P28907, N100D/N164A/N209D/N219D); experiment: Enzymatic assay for NAD+ hydrolase (NADase) activity of CD38; format: biochemical; conditions: 1 µM NAD+, 0.1 µg/mL CD38, 1 min, 20–24°C, pH 4.5; Figure S1; read-out: IC50, inhibition of NADase activity of CD38
T2 construct: Crystal structure of human CD38 extracellular domain; made in house
T2 sequence (P28907 45-300 N100D/N164A/N209D/N219D limits assumed): T1 sequence (P28907 45-300 N100D/N164A/N209D/N219D limits assumed)
Protocol: The reaction was stopped by addition of 150 mM HCl, filtered and assayed for NAD^+ by the fluorimetric cycling assay as previously described.

[3] = biological target: T3, CD38 (Homo sapiens, UniProt P28907, N100D/N164A/N209D/N219D); experiment: Incubation with CD38, nucleotide profile by HPLC (stability towards cleavage); format: in vitro ADME; conditions: HPLC after 18 h; data not shown
T3 construct: Crystal structure of human CD38 extracellular domain; made in house
T3 sequence (P28907 45-300 N100D/N164A/N209D/N219D limits assumed): T1 sequence (P28907 45-300 N100D/N164A/N209D/N219D limits assumed)

[4] = test system: Jurkat T-cells; parameters: method as in PMID 15932322; conditions: cited from earlier work
[5] = test system: sea urchin egg homogenate; parameters: method as in PMID 11535079; conditions: cited from earlier work
[6] = 1 µM cADPR, 2 µg/mL CD38, pH 4.5, inhibitor tested 0–1 mM, read-out: IC50, inhibition of cADPR hydrolysis by CD38
[7] = extrapolated beyond the tested range 0–1 mM, read-out: IC50, inhibition of cADPR hydrolysis, estimated by projection
[8] = 1 µM cADPR, 2 µg/mL CD38, 10 min, 20–24°C, pH 4.5, read-out: IC50, inhibition of cADPR hydrolysis by CD38

NCCCCNc1nc2c(=O)n3cnc2n1[C@@H]1O[C@H](COP(=O)(O)OP(=O)(O)OC[C@H]2O[C@@H]3[C@H](O)[C@@H]2O)[C@@H](O)[C@H]1O [8-(4-Aminobutane)amino N1-cIDPR, 8-(4-aminobutane)amino N1-cIDPR]
IC50 [1, 6]: > 1000 µM
IC50 [1, 7]: ~2000 µM

Nc1nc2c(=O)n([C@@H]3O[C@H](COP(=O)(O)O)[C@@H](O)[C@H]3O)cnc2[nH]1 [8-Amino N1-IMP, 8-amino N1-IMP]
IC50 [1, 8]: 7.6 µM

Nc1nc2c(=O)n3cnc2n1[C@@H]1O[C@H](COP(=O)(O)OP(=O)(O)OC[C@H]2O[C@@H]3[C@H](O)[C@@H]2O)[C@@H](O)[C@H]1O [8-Amino N1-cIDPR, 8-amino N1-cIDPR]
IC50 [1, 8]: 56 µM
Fold improvement of IC50 over N1-cIDPR (cADPR hydrolysis) [1]: over 5 fold
IC50 [2]: 21 µM

O=c1c2nc(Br)[nH]c2ncn1[C@@H]1O[C@H](COP(=O)(O)O)[C@@H](O)[C@H]1O [8-Bromo N1-IMP]
IC50 [1, 8]: 201 µM

O=c1c2nc(Br)n3c2ncn1[C@@H]1O[C@H](COP(=O)(O)OP(=O)(O)OC[C@H]2O[C@@H]3[C@H](O)[C@@H]2O)[C@@H](O)[C@H]1O [8-Bromo N1-cIDPR, 8-bromo N1-cIDPR]
Change in nucleotide profile after incubation with CD38 [3]: no change in the nucleotide profile

O=c1c2nc(I)[nH]c2ncn1[C@@H]1O[C@H](COP(=O)(O)O)[C@@H](O)[C@H]1O [8-Iodo N1-IMP, 8-iodo N1-IMP]
IC50 [1, 6]: > 1000 µM
IC50 [1, 7]: ~1240 µM

O=c1c2nc[nH]c2ncn1[C@@H]1O[C@H](COP(=O)(O)O)[C@@H](O)[C@H]1O [N1-IMP, N1-inosine 5′-monophosphate]
IC50 [1, 8]: 14 µM
Fold improvement of IC50 over N1-cIDPR (cADPR hydrolysis) [1]: ~20 fold

O=c1c2ncn3c2ncn1[C@@H]1O[C@H](COP(=O)(O)OP(=O)(O)OC[C@H]2O[C@@H]3[C@H](O)[C@@H]2O)[C@@H](O)[C@H]1O [N1-cIDPR, cyclic inosine 5′-diphosphoribose]
Ca2+ release compared with cADPR [4]: almost indistinguishable from Ca^2+ release induced by cADPR

N=c1c2ncn3c2ncn1[C@@H]1C[C@H](COP(=O)(O)OP(=O)(O)OC[C@H]2O[C@@H]3[C@H](O)[C@@H]2O)[C@@H](O)[C@H]1O [cADPcR, cyclic ADP-carbocyclic ribose, reference compound]
IC50 [1, 8]: 129 µM
Ca2+ release activity [5]: potent Ca^2+ release agent

Source: PMC3686795, “CD38 Structure-Based Inhibitor Design Using the N1-Cyclic Inosine 5′-Diphosphate Ribose Template” (PLoS ONE, 2013)
